The values that follow come from patent US10105357B2, “Indication of antibiotic drugs for preparation of cancer inhibition pharmaceutical composition” (LAUNX BIOMEDICAL CO., LTD., priority 2014, dated 2018).

In data set [1] the test system is TSGH-8301 (Urinary Bladder Carcinoma). Briefly: Cell viability analysis, bladder cancer TSGH-8301. Type of data set: cell-based, human.
Data set [2] deals with MCF7 (Mammary Gland, Adenocarcinoma). In words: Cell viability analysis, breast cancer MCF7. The class given is cell-based, human.
In data set [3] the test system is LoVo (Colorectal Adenocarcinoma). In words: Cell viability analysis, colon cancer LoVo. Type of data set: cell-based, human.
The test system of data set [4] is A375 (Amelanotic Melanoma). Briefly: Cell viability analysis, skin cancer A375. The class given is cell-based, human.
Data set [5] has as its system MKN-45 (Gastric Adenocarcinoma). Briefly: Cell viability analysis, gastric cancer MKN-45. The class given is cell-based, human.
Data set [6] has as its system 786-O (Renal adenocarcinoma). Briefly: Cell viability analysis, renal cancer 786-O. The class given is cell-based, human.
Data set [7] concerns SAS (Tongue squamous cell carcinoma). Briefly: Cell viability analysis, tongue cancer SAS. The class given is cell-based, human.
Data set [8] deals with PC3 (p53−) (Prostate Adenocarcinoma). In words: Cell viability analysis, prostate cancer PC3. Type of data set: cell-based, human.
The test system of data set [9] is C-33A (Cervical carcinoma). In words: Cell viability analysis, cervical cancer C-33A. The class given is cell-based, human.
Data set [10] concerns HCT116 (p53+) (Colorectal Carcinoma).
For a further data set, the system named is U-2OS. In words: Cell viability analysis, osteosarcoma U-2OS. Type of data set: cell-based, human.
The test system of the next data set is AsPC-1. Briefly: Cell viability analysis, pancreatic cancer AsPC-1. Type of data set: cell-based, human.
The subject of data set [11] is AGS (Gastric Adenocarcinoma). In words: Cell viability analysis, gastric cancer AGS. The class given is cell-based, human.
The subject of a further data set is T24. In words: Cell viability analysis, bladder cancer T24. The class given is cell-based, human.
For another data set, the system named is TOV-21G. Briefly: Cell viability analysis, ovarian cancer TOV-21G. Type of data set: cell-based, human.
Data set [12] has as its system HeLa (Cervix Adenocarcinoma). Briefly: Cell viability analysis, cervical cancer HeLa. The class given is cell-based, human.
The test system of the next data set is BxPC-3. In words: Cell viability analysis, pancreatic cancer BxPC-3. The class given is cell-based, human.
Data set [13] deals with Hep3B (hepatocellular carcinoma). In words: Cell viability analysis, hepatic cancer Hep3B. The class given is cell-based, human.
Another data set deals with NIH: OVCAR-3. Briefly: Cell viability analysis, ovarian cancer NIH: OVCAR-3. The class given is cell-based, human.
In data set [14] the test system is HepG2 (Hepatocellular Carcinoma). In words: Cell viability analysis, hepatic cancer HepG2. The class given is cell-based, human.
In data set [15] the test system is HI650 (Lung Adenocarcinoma). Briefly: Cell viability analysis, lung cancer HI650. Type of data set: cell-based, human.
Data set [16] relates to MDA-MB-231 (Mammary Gland, Adenocarcinoma). In words: Cell viability analysis, breast cancer MDA-MB-231. The class given is cell-based, human.
Data set [17] concerns BCC (basal cell carcinoma). In words: Cell viability analysis, skin cancer BCC. Type of data set: cell-based, human.
The subject of data set [18] is A549 (Lung Adenocarcinoma). Briefly: Cell viability analysis, lung cancer A549. The class given is cell-based, human.

Structures are written as SMILES.

Turning to `Cc1cc(C#N)cc(C)c1Oc1nc(Nc2ccc(C#N)cc2)nc(N)c1Br` [Etravirine (TMC125)], in data set [1], the “The results of antibiotic drug inhibiting cancer cell lines (cell viability analysis), TSGH-8301” value turned out to be 56.13. Besides, the “The results of antibiotic drug inhibiting cancer cell lines (cell viability analysis), MCF-7” value in data set [2] is 56.33. The “The results of antibiotic drug inhibiting cancer cell lines (cell viability analysis), LoVo” value in data set [3] was 45.66. In addition, in data set [4], the “The results of antibiotic drug inhibiting cancer cell lines (cell viability analysis), A375” value was found to be 37.32. For the same compound, the “The results of antibiotic drug inhibiting cancer cell lines (cell viability analysis), MKN-45” value in data set [5] came out at 62.38. In [6], the “The results of antibiotic drug inhibiting cancer cell lines (cell viability analysis), 786-O” value stood at 59.38. In addition, the “The results of antibiotic drug inhibiting cancer cell lines (cell viability analysis), SAS” value in [7] was found to be 34.01. Also, the “The results of antibiotic drug inhibiting cancer cell lines (cell viability analysis), PC-3” value in [8] is given as 53.42. Also, in data set [9], the “The results of antibiotic drug inhibiting cancer cell lines (cell viability analysis), C-33A” value was 63.88. Besides, in data set [10], the viability (as a rule, the share of living cells, or the viability signal relative to a control) was 54.1%. Also, the “The results of antibiotic drug inhibiting cancer cell lines (cell viability analysis), U2OS” value in the data set with U-2OS is on record as 36.38. The “The results of antibiotic drug inhibiting cancer cell lines (cell viability analysis), AsPC-1” value in the data set with AsPC-1 turned out to be 41.11. Also, the “The results of antibiotic drug inhibiting cancer cell lines (cell viability analysis), AGS” value in [11] came to 49.66. The “The results of antibiotic drug inhibiting cancer cell lines (cell viability analysis), T24” value in the data set on T24 is 56.73. Besides, in the data set with TOV-21G, the “The results of antibiotic drug inhibiting cancer cell lines (cell viability analysis), TOV-21G” value is 28.26. The “The results of antibiotic drug inhibiting cancer cell lines (cell viability analysis), HeLa” value in data set [12] is listed as 47.73. The “The results of antibiotic drug inhibiting cancer cell lines (cell viability analysis), BxPC-3” value in the data set with BxPC-3 was determined as 41.88. Further, the “The results of antibiotic drug inhibiting cancer cell lines (cell viability analysis), Hep3B” value in data set [13] amounted to 78.35. For the same compound, the “The results of antibiotic drug inhibiting cancer cell lines (cell viability analysis), NIH-OVCAR-3” value in the data set with NIH: OVCAR-3 came to 64.29. The “The results of antibiotic drug inhibiting cancer cell lines (cell viability analysis), HepG2” value in [14] stood at 68.31. In addition, in data set [15], the “The results of antibiotic drug inhibiting cancer cell lines (cell viability analysis), H1650” value was found to be 51.13. For the same compound, the “The results of antibiotic drug inhibiting cancer cell lines (cell viability analysis), MDA-MB231” value in [16] came to 95.38. The “The results of antibiotic drug inhibiting cancer cell lines (cell viability analysis), BCC” value in [17] worked out at 46.3. Also, the “The results of antibiotic drug inhibiting cancer cell lines (cell viability analysis), A549” value in [18] is 37.
In the case of `O=C(Nc1ccc([N+](=O)[O-])cc1Cl)c1cc(Cl)ccc1O` [Niclosamide (Niclocide)], the “The results of antibiotic drug inhibiting cancer cell lines (cell viability analysis), TSGH-8301” value in [1] amounted to 35.94. The “The results of antibiotic drug inhibiting cancer cell lines (cell viability analysis), MCF-7” value in data set [2] is given as 33.36. For the same compound, the “The results of antibiotic drug inhibiting cancer cell lines (cell viability analysis), LoVo” value in [3] is on record as 41.95. The “The results of antibiotic drug inhibiting cancer cell lines (cell viability analysis), A375” value in [4] turned out to be 20.26. The “The results of antibiotic drug inhibiting cancer cell lines (cell viability analysis), MKN-45” value in [5] was 50.74. In addition, the “The results of antibiotic drug inhibiting cancer cell lines (cell viability analysis), 786-O” value in data set [6] came to 25.52. The “The results of antibiotic drug inhibiting cancer cell lines (cell viability analysis), SAS” value in [7] came to 23.94. Besides, the “The results of antibiotic drug inhibiting cancer cell lines (cell viability analysis), PC-3” value in [8] is 42.84. Also, the “The results of antibiotic drug inhibiting cancer cell lines (cell viability analysis), C-33A” value in data set [9] is listed as 39.49. This compound showed a viability in data set [10] of 23.9%. Besides, in the data set with U-2OS, the “The results of antibiotic drug inhibiting cancer cell lines (cell viability analysis), U2OS” value is 26.74. For the same compound, the “The results of antibiotic drug inhibiting cancer cell lines (cell viability analysis), AsPC-1” value with AsPC-1 stood at 40.72. Moreover, in [11], the “The results of antibiotic drug inhibiting cancer cell lines (cell viability analysis), AGS” value was determined as 23.05. In addition, the “The results of antibiotic drug inhibiting cancer cell lines (cell viability analysis), T24” value in the data set with T24 is reported as 26.49. In addition, the “The results of antibiotic drug inhibiting cancer cell lines (cell viability analysis), TOV-21G” value in the data set on TOV-21G was determined as 17.59. Further, in data set [12], the “The results of antibiotic drug inhibiting cancer cell lines (cell viability analysis), HeLa” value is 25.4. Besides, the “The results of antibiotic drug inhibiting cancer cell lines (cell viability analysis), BxPC-3” value in the data set on BxPC-3 came to 41.93. In addition, the “The results of antibiotic drug inhibiting cancer cell lines (cell viability analysis), Hep3B” value in data set [13] is on record as 60.79. In addition, in the data set with NIH: OVCAR-3, the “The results of antibiotic drug inhibiting cancer cell lines (cell viability analysis), NIH-OVCAR-3” value is 54.68. The “The results of antibiotic drug inhibiting cancer cell lines (cell viability analysis), HepG2” value in [14] came out at 37.55. Also, the “The results of antibiotic drug inhibiting cancer cell lines (cell viability analysis), H1650” value in data set [15] is 36.77. The “The results of antibiotic drug inhibiting cancer cell lines (cell viability analysis), MDA-MB231” value in data set [16] was 37.69. In addition, in [17], the “The results of antibiotic drug inhibiting cancer cell lines (cell viability analysis), BCC” value came out at 30.66. Moreover, the “The results of antibiotic drug inhibiting cancer cell lines (cell viability analysis), A549” value in data set [18] was 16.68.
